Measurements: patent publication US9745283B2, “Uracil derivatives as AXL and c-MET kinase inhibitors” (priority 2011, dated 2017)
Like-named read-outs stand apart in the source and are kept apart here.

Columns and labels:
[1] = biological target: recombinant human baculovirus-expressed cMET (Homo sapiens (Human), UniProt P08581); assay: C-MET Kinase Assay (HTRF KinEASE); assay type: biochemical
Outline: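 HTRF KinEASE format with recombinant human baculovirus-expressed cMET at 8 ng/mL, biotinylated peptide at 0.1 μM and ATP at 0.02 μM. IC50 came from percent control activity versus log concentration, fitted by nonlinear regression to a variable-slope sigmoidal equation with bottom fixed at 0 and top at 100.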

[2] = biological target: recombinant human baculovirus-expressed AXL (Homo sapiens (Human), UniProt P30530); assay: AXL Kinase Assay (HTRF KinEASE); assay type: biochemical; conditions: average of two or more determinations
Procedure: The ability of compounds to inhibit the kinase activity of recombinant human baculovirus-expressed AXL was measured by homogeneous TRF (HTRF) using Cisbio's KinEASE™ assay system in white 384-well Optiplates. Assay buffer contained 1 mM DTT, 2 mM MnCl2, 2% DMSO, […] supplement enzymatic buffer, and 1× enzymatic buffer. A 2× concentration of tyrosine kinase (TK) substrate-biotin/ATP mixture made in assay buffer was added to plates at 10 μL/well using the Multidrop Combi (Thermo Fisher Scientific, Waltham, Mass.). […] Compounds (100 nL), diluted in 100% DMSO on the Biomek FX, (Beckman Coulter, Inc., Brea, Calif.), were transferred to the assay plates using the Biomek FX pintool (2.5% final DMSO in assay). […] Plates were sealed, briefly shaken and incubated at 25° C. for 30 minutes. […] Plates were sealed, briefly shaken and incubated at 25° C. for 1 hour.
Inhibition curves for compounds were generated by plotting percent control activity versus log 10 of the concentration of compound. IC50 values were calculated by nonlinear regression using the sigmoidal dose-response (variable slope) equation in GraphPad Prism as follows: y=bottom+(top−bottom)/(1+10(log IC50−x)*Hill Slope) where y is the % kinase activity at a given concentration of compound, x is the logarithm of the concentration of compound, bottom is the % of control kinase activity at the highest compound concentration tested, and top is the % of control kinase activity at the lowest compound concentration examined. The values for bottom and top were fixed at 0 and 100, respectively.

[3] = average of two or more determinations, read-out: c-MET IC50

Row | Structure (SMILES) | IC50 [1, 3] [nM] | IC50 [2] [nM] | IC50 [1] [nM]
1 | CCC(C)Cn1c(=O)c(C(=O)Nc2ccc(Oc3ccnc4cc(OC)c(OC)cc34)c(F)c2)nn(C)c1=O (racemic) [Example 130, ±2-Methyl-4-(2-methyl-butyl)-3,5-dioxo-2,3,4,5-tetrahydro-[1,2,4]triazine-6-carboxylic acid [4-(6,7-dimethoxy-quinolin-4-yloxy)-3-fluoro-phenyl]-amide] | 10 to 100 | < 10 | 
2 | COCCn1cc(C(=O)Nc2ccc(Oc3ccnc4cc(OC)c(OC)cc34)c(F)c2)c(=O)n(-c2ccc(F)cc2)c1=O [Example 3, 3-(4-Fluorophenyl)-1-(2-methoxyethyl)-2,4-dioxo-1,2,3,4-tetrahydropyrimidine-5-carboxylic acid [4-(6,7-dimethoxyquinolin-4-yloxy)-3-fluorophenyl]-amide] | 10 to 100 | < 10 | 
3 | CCOCCn1cc(C(=O)Nc2ccc(Oc3ccnc4cc(OC)c(OC)cc34)c(F)c2)c(=O)n(-c2ccc(F)cc2)c1=O [Example 4, 1-(2-Ethoxyethyl)-3-(4-fluorophenyl)-2,4-dioxo-1,2,3,4-tetrahydropyrimidine-5-carboxylic acid [4-(6,7-dimethoxyquinolin-4-yloxy)-3-fluorophenyl]-amide] | 10 to 100 | < 10 | 
4 | COc1cc2nccc(Oc3ccc(NC(=O)c4cn(C(C)C)c(=O)n(-c5ccc(F)cc5)c4=O)cc3F)c2cc1OC [Example 5, 3-(4-Fluorophenyl)-1-isopropyl-2,4-dioxo-1,2,3,4-tetrahydropyrimidine-5-carboxylic acid [4-(6,7-dimethoxyquinolin-4-yloxy)-3-fluorophenyl]-amide] |  | < 10 | 10 to 100
5 | COCCCn1cc(C(=O)Nc2ccc(Oc3ccnc4cc(OC)c(OC)cc34)c(F)c2)c(=O)n(-c2ccc(F)cc2)c1=O [Example 7, 3-(4-Fluorophenyl)-1-(3-methoxypropyl)-2,4-dioxo-1,2,3,4-tetrahydropyrimidine-5-carboxylic acid [4-(6,7-dimethoxyquinolin-4-yloxy)-3-fluorophenyl]-amide] | 10 to 100 | < 10 | 
6 | COc1cc2nccc(Oc3ccc(NC(=O)c4cn(CC(C)C)c(=O)n(-c5ccc(F)cc5)c4=O)cc3F)c2cc1OC [Example 8, 3-(4-Fluorophenyl)-1-isobutyl-2,4-dioxo-1,2,3,4-tetrahydropyrimidine-5-carboxylic acid [4-(6,7-dimethoxyquinolin-4-yloxy)-3-fluorophenyl]-amide] | 10 to 100 | < 10 | 
7 | CCCn1cc(C(=O)Nc2ccc(Oc3ccnc4cc(OC)c(OC)cc34)c(F)c2)c(=O)n(-c2ccc(F)cc2)c1=O [Example 11, 3-(4-Fluorophenyl)-2,4-dioxo-1-propyl-1,2,3,4-tetrahydropyrimidine-5-carboxylic acid [4-(6,7-dimethoxyquinolin-4-yloxy)-3-fluorophenyl]-amide] | 10 to 100 | < 10 | 
8 | CCn1cc(C(=O)Nc2ccc(Oc3ccnc4cc(OC)cc(OC)c34)cc2)c(=O)n(-c2ccc(F)cc2)c1=O [Example 39, 1-Ethyl-3-(4-fluorophenyl)-2,4-dioxo-1,2,3,4-tetrahydropyrimidine-5-carboxylic acid [4-(5,7-dimethoxyquinolin-4-yloxy)-phenyl]-amide] |  | < 10 | 
9 | COc1cc2nccc(Oc3ccc(NC(=O)c4cn(Cc5csc(C)n5)c(=O)n(-c5ccc(F)cc5)c4=O)cc3F)c2cc1OC [Example 75, 3-(4-Fluoro-phenyl)-1-(2-methyl-thiazol-4-ylmethyl)-2,4-dioxo-1,2,3,4-tetrahydro-pyrimidine-5-carboxylic acid [4-(6,7-dimethoxy-quinolin-4-yloxy)-3-fluoro-phenyl]-amide] |  | < 10 | 
10 | COc1cc2nccc(Oc3ccc(NC(=O)c4cn(C5CCCC5)c(=O)n(-c5ccc(F)cc5)c4=O)cc3F)c2cc1OC [Example 76, 1-Cyclopentyl-3-(4-fluoro-phenyl)-2,4-dioxo-1,2,3,4-tetrahydro-pyrimidine-5-carboxylic acid [4-(6,7-dimethoxy-quinolin-4-yloxy)-3-fluoro-phenyl]-amide] |  | < 10 | 
11 | COc1cc2nccc(Oc3ccc(NC(=O)c4cn(C(C)C)c(=O)n(-c5ccc(F)cc5)c4=O)cc3C)c2cc1OC [Example 163, 3-(4-Fluoro-phenyl)-1-isopropyl-2,4-dioxo-1,2,3,4-tetrahydro-pyrimidine-5-carboxylic acid [4-(6,7-dimethoxy-quinolin-4-yloxy)-3-methyl-phenyl]-amide] | 10 to 100 |  | 
12 | CCn1nc(C(=O)Nc2ccc(Oc3ccnc4cc(OC)c(OC)cc34)cn2)c(=O)n(-c2ccc(F)cc2)c1=O [Example 164, 2-Ethyl-4-(4-fluoro-phenyl)-3,5-dioxo-2,3,4,5-tetrahydro-1,2,4-triazine-6-carboxylic acid [5-(6,7-dimethoxy-quinolin-4-yloxy)-pyridin-2-yl]-amide] | 10 to 100 |  | 
13 | COc1cc(Oc2ccnc3cc(OC)c(OC)cc23)ccc1NC(=O)c1nn(C(C)C)c(=O)n(-c2ccc(F)cc2)c1=O [Example 166, 4-(4-Fluoro-phenyl)-2-isopropyl-3,5-dioxo-2,3,4,5-tetrahydro-1,2,4-triazine-6-carboxylic acid [4-(6,7-dimethoxy-quinolin-4-yloxy)-2-methoxy-phenyl]-amide] | 101 to 1000 |  | 
14 | CCn1cc(C(=O)Nc2ccc(Oc3ccnc4ccc(OC)c(OC)c34)cc2)c(=O)n(-c2ccc(F)cc2)c1=O [Example 167, 1-Ethyl-3-(4-fluoro-phenyl)-2,4-dioxo-1,2,3,4-tetrahydro-pyrimidine-5-carboxylic acid [4-(5,6-dimethoxy-quinolin-4-yloxy)-phenyl]-amide] |  | < 10 | 
15 | CCn1nc(C(=O)Nc2ccc(Oc3ccnc4cc(OC)c(OC)cc34)cc2OC)c(=O)n(-c2ccc(F)cc2)c1=O [Example 170, 2-Ethyl-4-(4-fluoro-phenyl)-3,5-dioxo-2,3,4,5-tetrahydro-1,2,4-triazine-6-carboxylic acid [4-(6,7-dimethoxy-quinolin-4-yloxy)-2-methoxy-phenyl]-amide] | 10 to 100 |  | 

Further lines, with some results ahead:

Row | IC50 [1, 3] [nM] | IC50 [2] [nM] | Structure (SMILES) | IC50 [1] [nM]
16 | < 10 | < 10 | CCn1cc(C(=O)Nc2ccc(Oc3ccnc4cc(OC)c(OC)cc34)c(F)c2)c(=O)n(-c2ccc(F)cc2)c1=O [Example 1, 1-Ethyl-3-(4-fluorophenyl)-2,4-dioxo-1,2,3,4-tetrahydropyrimidine-5-carboxylicacid [4-(6,7-dimethoxyquinolin-4-yloxy)-3-fluorophenyl]amide] | 
17 | < 10 | < 10 | COc1cc2nccc(Oc3ccc(NC(=O)c4cn(C)c(=O)n(-c5ccc(F)cc5)c4=O)cc3F)c2cc1OC [Example 2, 3-(4-Fluorophenyl)-1-methyl-2,4-dioxo-1,2,3,4-tetrahydropyrimidine-5-carboxylic acid [4-(6,7-dimethoxyquinolin-4-yloxy)-3-fluoro-phenyl]-amide] | 
18 | < 10 | < 10 | COc1cc2nccc(Oc3ccc(NC(=O)c4cn(CC5CC5)c(=O)n(-c5ccc(F)cc5)c4=O)cc3F)c2cc1OC [Example 6, 1-Cyclopropylmethyl-3-(4-fluorophenyl)-2,4-dioxo-1,2,3,4-tetrahydropyrimidine-5-carboxylic acid [4-(6,7-dimethoxyquinolin-4-yloxy)-3-fluorophenyl]-amide] | 
19 | < 10 | < 10 | C=CCn1cc(C(=O)Nc2ccc(Oc3ccnc4cc(OC)c(OC)cc34)c(F)c2)c(=O)n(-c2ccc(F)cc2)c1=O [Example 9, 1-Allyl-3-(4-fluorophenyl)-2,4-dioxo-1,2,3,4-tetrahydropyrimidine-5-carboxylic acid [4-(6,7-dimethoxyquinolin-4-yloxy)-3-fluorophenyl]-amide] | 
20 | < 10 | < 10 | COc1cc2nccc(Oc3ccc(NC(=O)c4cn(CC=C(F)F)c(=O)n(-c5ccc(F)cc5)c4=O)cc3F)c2cc1OC [Example 14, 1-(3,3-Difluoro-allyl)-3-(4-fluorophenyl)-2,4-dioxo-1,2,3,4-tetrahydropyrimidine-5-carboxylic acid [4-(6,7-dimethoxyquinolin-4-yloxy)-3-fluorophenyl]-amide] | 
21 | < 10 | < 10 | COc1cc2nccc(Oc3ccc(NC(=O)c4cn(CCN5CCOCC5)c(=O)n(-c5ccc(F)cc5)c4=O)cc3F)c2cc1OC [Example 16, 3-(4-Fluorophenyl)-1-(2-morpholin-4-yl-ethyl)-2,4-dioxo-1,2,3,4-tetrahydropyrimidine-5-carboxylic acid [4-(6,7-dimethoxyquinolin-4-yloxy)-3-fluorophenyl]-amide] | 
22 | < 10 |  | CCn1nc(C(=O)Nc2ccc(Oc3ccnc4cc(OC)c(OC)cc34)c(C(F)(F)F)c2)c(=O)n(-c2ccc(F)cc2)c1=O [Example 169, 2-Ethyl-4-(4-fluoro-phenyl)-3,5-dioxo-2,3,4,5-tetrahydro-1,2,4-triazine-6-carboxylic acid [4-(6,7-dimethoxy-quinolin-4-yloxy)-3-trifluoromethyl-phenyl]-amide] | 
